Measured values from PubChem BioAssay AID2060513 (Molecular Pharmacology Branch, DTP, NCI, 2025).

Tested on: 299254-011-R-J1-PDC complex spheroids viability
Assay: Anticancer human tumor 299254-011-R-J1-PDC patient-derived melanoma cell line growth inhibition [GQUAD]
Details: for IC50: curve of first compound; for viability, T/C: stronger effect = lower value
Summary of the method: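 Viability of tumor cells grown as complex spheroids with endothelial and stromal cells, exposed to drug combinations. Top concentration at or near clinical Cmax (else 10 microM), diluted in half-log increments.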

[1] = second compound 0.0316 µM, first compound 0.0316 µM
[2] = second compound 0.0316 µM, first compound 0.1 µM
[3] = second compound 0.0316 µM, first compound 0.316 µM
[4] = second compound 0.0316 µM, first compound 1 µM
[5] = second compound 0.0316 µM, first compound 3.16 µM
[6] = second compound 0.0316 µM, first compound 10 µM
[7] = second compound 0.1 µM, first compound 0.0316 µM
[8] = second compound 0.1 µM, first compound 0.1 µM
[9] = second compound 0.1 µM, first compound 0.316 µM
[10] = second compound 0.1 µM, first compound 1 µM
[11] = second compound 0.1 µM, first compound 3.16 µM
[12] = second compound 0.1 µM, first compound 10 µM
[13] = second compound 0.316 µM, first compound 0.0316 µM
[14] = second compound 0.316 µM, first compound 0.1 µM
[15] = second compound 0.316 µM, first compound 0.316 µM
[16] = second compound 0.316 µM, first compound 1 µM
[17] = second compound 0.316 µM, first compound 3.16 µM
[18] = second compound 0.316 µM, first compound 10 µM
[19] = second compound 1 µM, first compound 0.0316 µM
[20] = second compound 1 µM, first compound 0.1 µM
[21] = second compound 1 µM, first compound 0.316 µM
[22] = second compound 1 µM, first compound 1 µM
[23] = second compound 1 µM, first compound 3.16 µM
[24] = second compound 1 µM, first compound 10 µM
[25] = second compound 3.16 µM, first compound 0.0316 µM
[26] = second compound 3.16 µM, first compound 0.1 µM
[27] = second compound 3.16 µM, first compound 0.316 µM
[28] = second compound 3.16 µM, first compound 1 µM
[29] = second compound 3.16 µM, first compound 3.16 µM
[30] = second compound 3.16 µM, first compound 10 µM
[31] = second compound 10 µM, first compound 0.0316 µM
[32] = second compound 10 µM, first compound 0.1 µM
[33] = second compound 10 µM, first compound 0.316 µM
[34] = second compound 10 µM, first compound 1 µM
[35] = second compound 10 µM, first compound 3.16 µM
[36] = second compound 10 µM, first compound 10 µM
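Also: spheroids exposed to the agents for seven days before readout.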
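For viability, T/C in this document: percent viability relative to DMSO vehicle control wells = 100%.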

CC1COCCN1c1cc(C2(S(C)(=N)=O)CC2)nc(-c2ccnc3[nH]ccc23)n1 (stereo unspecified) + CN(C)c1ccc(Nc2c3ccc(NC(=O)CCN4CCCC4)cc3nc3cc(NC(=O)CCN4CCCC4)ccc23)cc1
IC50 (second compound 0.0316 µM): 6.24 µM
IC50 (second compound 0.1 µM): 3.93 µM
IC50 (second compound 0.316 µM): 5.06 µM
IC50 (second compound 1 µM): 4.48 µM
IC50 (second compound 3.16 µM): 3.63 µM
IC50 (second compound 10 µM): 2.91 µM
viability, T/C [1]: 99.6%
viability, T/C [2]: 106%
viability, T/C [3]: 98%
viability, T/C [4]: 93.1%
viability, T/C [5]: 75.6%
viability, T/C [6]: 32.2%
viability, T/C [7]: 116%
viability, T/C [8]: 128%
viability, T/C [9]: 101%
viability, T/C [10]: 77.5%
viability, T/C [11]: 59.7%
viability, T/C [12]: 27.9%
viability, T/C [13]: 105%
viability, T/C [14]: 98.2%
viability, T/C [15]: 131%
viability, T/C [16]: 82.4%
viability, T/C [17]: 71.4%
viability, T/C [18]: 23.5%
viability, T/C [19]: 114%
viability, T/C [20]: 95.3%
viability, T/C [21]: 85%
viability, T/C [22]: 78%
viability, T/C [23]: 65.5%
viability, T/C [24]: 27.9%
viability, T/C [25]: 125%
viability, T/C [26]: 100%
viability, T/C [27]: 87.3%
viability, T/C [28]: 80.4%
viability, T/C [29]: 53.2%
viability, T/C [30]: 28.3%
viability, T/C [31]: 105%
viability, T/C [32]: 117%
viability, T/C [33]: 101%
viability, T/C [34]: 98%
viability, T/C [35]: 46.1%
viability, T/C [36]: 32%

CC1COCCN1c1cc(C2(S(C)(=N)=O)CC2)nc(-c2ccnc3[nH]ccc23)n1 (stereo unspecified) + Cc1cnc(CNC(=O)c2c(=O)c3ccc(N4CCCN(C)CC4)nc3n3c2sc2ccccc23)cn1
IC50 (second compound 0.0316 µM): 1.65 µM
IC50 (second compound 0.1 µM): 2.48 µM
IC50 (second compound 0.316 µM): 1.68 µM
IC50 (second compound 1 µM): 0.524 µM
IC50 (second compound 3.16 µM): 0.517 µM
IC50 (second compound 10 µM): < 0.0316 µM
viability, T/C [1]: 93%
viability, T/C [2]: 89.9%
viability, T/C [3]: 76.7%
viability, T/C [4]: 61.8%
viability, T/C [5]: 36%
viability, T/C [6]: 22%
viability, T/C [7]: 80.8%
viability, T/C [8]: 95.6%
viability, T/C [9]: 78.9%
viability, T/C [10]: 79.4%
viability, T/C [11]: 42.2%
viability, T/C [12]: 18.7%
viability, T/C [13]: 80.6%
viability, T/C [14]: 97.1%
viability, T/C [15]: 96.7%
viability, T/C [16]: 69.8%
viability, T/C [17]: 25.7%
viability, T/C [18]: 15.6%
viability, T/C [19]: 71.9%
viability, T/C [20]: 83.1%
viability, T/C [21]: 48.7%
viability, T/C [22]: 44.1%
viability, T/C [23]: 24.4%
viability, T/C [24]: 17.1%
viability, T/C [25]: 76.3%
viability, T/C [26]: 72.3%
viability, T/C [27]: 63.7%
viability, T/C [28]: 31.9%
viability, T/C [29]: 22.8%
viability, T/C [30]: 19.1%
viability, T/C [31]: 0.39%
viability, T/C [32]: 19.2%
viability, T/C [33]: 44.1%
viability, T/C [34]: 26.4%
viability, T/C [35]: 0.34%
viability, T/C [36]: 0.27%

O=C(c1cc(Cc2n[nH]c(=O)c3ccccc23)ccc1F)N1CCN(C(=O)C2CC2)CC1 + Cc1cnc(CNC(=O)c2c(=O)c3ccc(N4CCCN(C)CC4)nc3n3c2sc2ccccc23)cn1
IC50 (second compound 0.0316 µM): > 10 µM
IC50 (second compound 0.1 µM): > 10 µM
IC50 (second compound 0.316 µM): > 10 µM
IC50 (second compound 1 µM): > 10 µM
IC50 (second compound 3.16 µM): > 10 µM
IC50 (second compound 10 µM): < 0.0316 µM
viability, T/C [1]: 99.3%
viability, T/C [2]: 92.8%
viability, T/C [3]: 94.1%
viability, T/C [4]: 83.4%
viability, T/C [5]: 87.2%
viability, T/C [6]: 81.5%
viability, T/C [7]: 102%
viability, T/C [8]: 99.8%
viability, T/C [9]: 89.7%
viability, T/C [10]: 98.4%
viability, T/C [11]: 117%
viability, T/C [12]: 81.6%
viability, T/C [13]: 81.6%
viability, T/C [14]: 97.2%
viability, T/C [15]: 91.3%
viability, T/C [16]: 102%
viability, T/C [17]: 103%
viability, T/C [18]: 73.9%
viability, T/C [19]: 78%
viability, T/C [20]: 79.5%
viability, T/C [21]: 82.7%
viability, T/C [22]: 73.5%
viability, T/C [23]: 75.6%
viability, T/C [24]: 66%
viability, T/C [25]: 67.1%
viability, T/C [26]: 91.5%
viability, T/C [27]: 93.7%
viability, T/C [28]: 78.8%
viability, T/C [29]: 69.5%
viability, T/C [30]: 67.9%
viability, T/C [31]: 0.42%
viability, T/C [32]: 20.2%
viability, T/C [33]: 52.3%
viability, T/C [34]: 41.7%
viability, T/C [35]: 0.43%
viability, T/C [36]: 0.33%
